These compounds were tested against T1, human liver GK (Homo sapiens, UniProt P35557) (assay: GK activation test). Details: test compound concentration needed to activate 50% of maximum activation ability; 4 mM 14C-labeled glucose, 2 mM ATP, room temperature, 20 minutes.
T1 construct: GST (glutathione S-transferase) (N); made in house; host or cells: E. coli
T1 sequence (P35557 1-466 isoform P35557-2): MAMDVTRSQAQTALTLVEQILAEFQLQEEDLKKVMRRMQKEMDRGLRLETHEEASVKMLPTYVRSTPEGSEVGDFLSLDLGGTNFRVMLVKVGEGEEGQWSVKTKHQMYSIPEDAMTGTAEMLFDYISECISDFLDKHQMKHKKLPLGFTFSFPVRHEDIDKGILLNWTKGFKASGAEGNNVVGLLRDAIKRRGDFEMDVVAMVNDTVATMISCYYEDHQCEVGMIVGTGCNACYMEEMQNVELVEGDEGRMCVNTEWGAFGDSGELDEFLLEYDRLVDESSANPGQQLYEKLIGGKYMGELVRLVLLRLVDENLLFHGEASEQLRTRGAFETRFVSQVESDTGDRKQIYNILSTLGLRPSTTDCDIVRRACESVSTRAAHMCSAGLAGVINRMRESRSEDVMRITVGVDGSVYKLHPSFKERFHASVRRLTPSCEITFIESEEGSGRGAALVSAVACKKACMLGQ
Type: biochemical
In short: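 GST-tagged human liver GK from E. coli (0.24 μg/well) with 4 mM 14C-glucose, 2 mM ATP in Hepes-KOH pH 7.1, KCl, MgCl2, DTT, 1% DMSO, 20 min room temperature. Labeled glucose 6-phosphate captured on anion resin, eluted and counted. EC50 = concentration giving half of maximal activation.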
`CCc1ccc(/C(=C/[C@H]2CCC(=O)C2)c2ccc(SCCCN(CC)CC)c(Cl)c2)[nH]c1=O` [Example 1-77, 6-{(E)-1-(3-Chloro-4-{[3-(diethylamino)propyl]sulfanyl}phenyl)-2-[(1S)-3-oxocyclopentyl]ethenyl}-3-ethylpyridin-2(1H)-one] was tested, and the EC50 was 10 to 500 nM. For `CCc1ccc(/C(=C/[C@H]2CCC(=O)C2)c2ccc(S(=O)(=O)CCCN(CC)CC)c(Cl)c2)[nH]c1=O` [Example 1-78, 6-{(E)-1-(3-Chloro-4-{[3-(diethylamino)propyl]sulfonyl}phenyl)-2-[(1S)-3-oxocyclopentyl]ethenyl}-3-ethylpyridin-2(1H)-one], the EC50 was 10 to 500 nM. For `CCN(CC)CCCOc1ccc(/C(=C\[C@H]2CCC(=O)C2)c2ccc(C3CC3)c(=O)[nH]2)cc1Cl` [Example 1-79, 6-{(E)-1-{3-Chloro-4-[3-(diethylamino)propoxy]phenyl}-2-[(1S)-3-oxocyclopentyl]ethenyl}-3-cyclopropylpyridin-2(1H)-one], the EC50 was 10 to 500 nM. `CCN(CC)CCCCOc1ccc(/C(=C\[C@H]2CCC(=O)C2)c2ccc(C3CC3)c(=O)[nH]2)cc1Cl` [Example 1-80, 6-{(E)-1-{3-Chloro-4-[4-(diethylamino)butoxy]phenyl}-2-[(1S)-3-oxocyclopentyl]ethenyl}-3-cyclopropylpyridin-2(1H)-one] gave an EC50 of 10 to 500 nM. `O=C1CC[C@H](/C=C(\c2ccc(OCCCO)c(Cl)c2)c2ccc(C(F)(F)F)c(=O)[nH]2)C1` [Example 1-81, 6-{(E)-1-[3-Chloro-4-(3-hydroxypropoxy)phenyl]-2-[(1S)-3-oxocyclopentyl]ethenyl}-3-(trifluoromethyl)pyridin-2(1H)-one] was tested, and the EC50 was 500 to 3000 nM. Compound `O=C1CC[C@H](/C=C(\c2ccc(SCCCO)c(Cl)c2)c2ccc(C(F)(F)F)c(=O)[nH]2)C1` [Example 1-82, 6-{(E)-1-{3-Chloro-4-[(3-hydroxypropyl)sulfanyl]phenyl}-2-[(1S)-3-oxocyclopentyl]ethenyl}-3-(trifluoromethyl)pyridin-2(1H)-one] has an EC50 of 10 to 500 nM. Compound `CCN(CC)CCCOc1ccc(/C(=C\[C@H]2CCC(=O)C2)c2ccc(C(F)(F)F)c(=O)[nH]2)cc1Cl` [Example 1-83, 6-{(E)-1-{3-Chloro-4-[3-(diethylamino)propoxy]phenyl}-2-[(1S)-3-oxocyclopentyl]ethenyl}-3-(trifluoromethyl)pyridin-2(1H)-one] has an EC50 of 500 to 3000 nM. With `CCN(CC)CCCSc1ccc(/C(=C\[C@H]2CCC(=O)C2)c2ccc(C(F)(F)F)c(=O)[nH]2)cc1Cl` [Example 1-84, 6-{(E)-1-(3-Chloro-4-{[3-(diethylamino)propyl]sulfanyl}phenyl)-2-[(1S)-3-oxocyclopentyl]ethenyl}-3-(trifluoromethyl)pyridin-2(1H)-one] the EC50 was 500 to 3000 nM. `CSc1ccc(/C(=C\[C@H]2CCC(O)C2)c2ccc(C3CC3)c(=O)[nH]2)cc1Cl` (stereo partly drawn) [Example 1-85, 6-{(E)-1-[3-Chloro-4-(methylsulfanyl)phenyl]-2-[(1S)-3-hydroxycyclopentyl]ethenyl}-3-cyclopropylpyridin-2(1H)-one] gave an EC50 of 10 to 500 nM. `CCN(CC)CCCOc1ccc(/C(=C\[C@H]2CCC(O)C2)c2ccc(C(F)(F)F)c(=O)[nH]2)cc1Cl` (stereo partly drawn) [Example 1-86, 6-{(E)-1-{3-Chloro-4-[3-(diethylamino)propoxy]phenyl}-2-[(1S)-3-hydroxycyclopentyl]ethenyl}-3-(trifluoromethyl)pyridin-2(1H)-one] was tested, and the EC50 was 500 to 3000 nM. Work on `CCN(CC)CCCOc1ccc(/C(=C\[C@H]2CCC(O)C2)c2ccc(C3CC3)c(=O)[nH]2)cc1Cl` (stereo partly drawn) [Example 1-87, 6-{(E)-1-{3-Chloro-4-[3-(diethylamino)propoxy]phenyl}-2-[(1S)-3-hydroxycyclopentyl]ethenyl}-3-cyclopropylpyridin-2(1H)-one] yielded an EC50 of 500 to 3000 nM. With `COc1ccc(/C(=C\[C@H]2CC[C@@H](O)CC2)c2ccc(C3CC3)c(=O)[nH]2)cc1Cl` [Example 1-88, 6-[(E)-1-(3-Chloro-4-methoxyphenyl)-2-(cis-4-hydroxycyclohexyl)ethenyl]-3-cyclopropylpyridin-2(1H)-one] the EC50 was 500 to 3000 nM. Compound `COc1ccc(/C(=C\[C@H]2CC[C@H](O)CC2)c2ccc(C3CC3)c(=O)[nH]2)cc1Cl` [Example 1-89, 6-[(E)-1-(3-Chloro-4-methoxyphenyl)-2-(trans-4-hydroxycyclohexyl)ethenyl]-3-cyclopropylpyridin-2(1H)-one] has an EC50 of 500 to 3000 nM. For `O=c1[nH]c(/C(=C/[C@H]2CC[C@H](O)CC2)c2ccc(SC3CC3)cc2)ccc1C(F)(F)F` [Example 1-90, 6-[(E)-1-[4-(Cyclopropylsulfanyl)phenyl]-2-(trans-4-hydroxycyclohexyl)ethenyl]-3-(trifluoromethyl)pyridin-2(1H)-one], the EC50 was 10 to 500 nM. With `O=c1[nH]c(/C(=C/[C@H]2CC[C@H](O)CC2)c2ccc(S(=O)(=O)C3CC3)cc2)ccc1C(F)(F)F` [Example 1-91, 6-[(E)-1-[4-(Cyclopropylsulfonyl)phenyl]-2-(trans-4-hydroxycyclohexyl)ethenyl]-3-(trifluoromethyl)pyridin-2(1H)-one] the EC50 was 500 to 3000 nM. Compound `CSc1ccc(/C(=C\CCO)c2ccc(C3CC3)c(=O)[nH]2)cc1` [Example 1-92, 3-Cyclopropyl-6-{(1E)-4-hydroxy-1-[4-(methylsulfanyl)phenyl]but-1-en-1-yl}pyridin-2(1H)-one] has an EC50 of 3000 to 10000 nM. Work on `CS(=O)(=O)c1ccc(/C(=C\CCO)c2ccc(C3CC3)c(=O)[nH]2)cc1` [Example 1-93, 3-Cyclopropyl-6-{(1E)-4-hydroxy-1-[4-(methylsulfonyl)phenyl]but-1-en-1-yl}pyridin-2(1H)-one] yielded an EC50 of 3000 to 10000 nM. `CSc1ccc(/C(=C\CCNC(C)=O)c2ccc(C3CC3)c(=O)[nH]2)cc1` [Example 1-94, N-{(3E)-4-(5-Cyclopropyl-6-oxo-1,6-dihydropyridin-2-yl)-4-[4-(methylsulfanyl)phenyl]but-3-en-1-yl}acetamide] gave an EC50 of 3000 to 10000 nM. For `CC(=O)NCC/C=C(\c1ccc(S(C)(=O)=O)cc1)c1ccc(C2CC2)c(=O)[nH]1` [Example 1-95, N-{(3E)-4-(5-Cyclopropyl-6-oxo-1,6-dihydropyridin-2-yl)-4-[4-(methylsulfonyl)phenyl]but-3-en-1-yl}acetamide], the EC50 was 3000 to 10000 nM. In the case of `CSc1ccc(/C(=C\CCCO)c2ccc(C3CC3)c(=O)[nH]2)cc1` [Example 1-96, 3-Cyclopropyl-6-{(1E)-5-hydroxy-1-[4-(methylsulfanyl)phenyl]pent-1-en-1-yl}pyridin-2(1H)-one], the EC50 is reported as 500 to 3000 nM. With `CS(=O)(=O)c1ccc(/C(=C\CCCO)c2ccc(C3CC3)c(=O)[nH]2)cc1` [Example 1-97, 3-Cyclopropyl-6-{(1E)-5-hydroxy-1-[4-(methylsulfonyl)phenyl]pent-1-en-1-yl}pyridin-2(1H)-one] the EC50 was 500 to 3000 nM. Compound `O=c1[nH]c(/C(=C/CCCO)c2ccc(SC3CC3)cc2)ccc1C(F)(F)F` [Example 1-98, 6-{(1E)-1-[4-(Cyclopropylsulfanyl)phenyl]-5-hydroxypent-1-en-1-yl}-3-(trifluoromethyl)pyridin-2(1H)-one] has an EC50 of 3000 to 10000 nM. `O=c1[nH]c(/C(=C/CCCO)c2ccc(S(=O)(=O)C3CC3)cc2)ccc1C(F)(F)F` [Example 1-99, 6-{(1E)-1-[4-(Cyclopropylsulfonyl)phenyl]-5-hydroxypent-1-en-1-yl}-3-(trifluoromethyl)pyridin-2(1H)-one] showed an EC50 of 500 to 3000 nM. Work on `Cc1ccc(/C(=C/C2(CO)CC2)c2ccc(S(=O)(=O)C3CC3)cc2)[nH]c1=O` [Example 1-100, 6-{(E)-1-[4-(Cyclopropylsulfonyl)phenyl]-2-[1-(hydroxymethyl)cyclopropyl]ethenyl}-3-methylpyridin-2(1H)-one] yielded an EC50 of 3000 to 10000 nM. Compound `C[C@@H](/C=C(\c1ccc(S(=O)(=O)C2CC2)cc1)c1ccc(C(F)(F)F)c(=O)[nH]1)CO` [Example 1-101, 6-{(1E,3S)-1-[4-(Cyclopropylsulfonyl)phenyl]-4-hydroxy-3-methylbut-1-en-1-yl}-3-(trifluoromethyl)pyridin-2(1H)-one] has an EC50 of 3000 to 10000 nM. `C[C@H](/C=C(\c1ccc(S(=O)(=O)C2CC2)cc1)c1ccc(C(F)(F)F)c(=O)[nH]1)CO` [Example 1-102, 6-{(1E,3R)-1-[4-(Cyclopropylsulfonyl)phenyl]-4-hydroxy-3-methylbut-1-en-1-yl}-3-(trifluoromethyl)pyridin-2(1H)-one] showed an EC50 of 500 to 3000 nM. Compound `O=c1[nH]c(/C(=C/C2CCCC2)c2ccc(SC3CC3)cc2)ccc1Cl` [Example 1-103, 3-Chloro-6-{(E)-2-cyclopentyl-1-[4-(cyclopropylsulfanyl)phenyl]ethenyl}pyridin-2(1H)-one] has an EC50 of 10 to 500 nM. For `O=c1[nH]c(/C(=C/C2CCCC2)c2ccc(S(=O)(=O)C3CC3)cc2)ccc1Cl` [Example 1-104, 3-Chloro-6-{(E)-2-cyclopentyl-1-[4-(cyclopropylsulfonyl)phenyl]ethenyl}pyridin-2(1H)-one], the EC50 was 10 to 500 nM. Compound `CC(=O)Nc1ccc(/C(=C\C2CCCC2)c2ccc(Cl)c(=O)[nH]2)cc1` [Example 1-105, N-{4-[(E)-1-(5-Chloro-6-oxo-1,6-dihydropyridin-2-yl)-2-cyclopentylethenyl]phenyl}acetamide] has an EC50 of 500 to 3000 nM. `NC(=O)Nc1ccc(/C(=C\C2CCCC2)c2ccc(Cl)c(=O)[nH]2)cc1` [Example 1-106, 1-{4-[(E)-1-(5-Chloro-6-oxo-1,6-dihydropyridin-2-yl)-2-cyclopentylethenyl]phenyl}urea] showed an EC50 of 500 to 3000 nM.

From patent US8822503B2, “2-pyridone compounds” (Taisho Pharmaceutical Co., Ltd, priority 2009, dated 2014)
